Assay results: article PMC4838890, “Dynamic and flexible H3K9me3 bridging via HP1β dimerization establishes a plastic state of condensed chromatin” (Nature Communications, 2016)
Entries after “also recorded” stand apart in the source; their conditions may differ. Where two headings read alike, the source gives them in different places.

How the values were obtained:
H3KC9me3 peptide = experiment: ITC, H3KC9me3 peptide; type: binding; details: for Kd: ITC, pH 7.5, 25°C, read-out: Kd (apparent dissociation constant)
Experimental: ITC measurements were performed on a iTC200 calorimeter (Microcal, Malvern, UK) at 25°C in binding buffer (10 mM triethanolamine (pH 7.5), 20 or 150 mM NaCl, 0.1 mM EDTA). Reaction heats were recorded by sequences of 37 injections of 1.8 mM hHP1β, spaced at 120 s intervals, into 250 μl of 60 μM H3 peptides, nucleosomes or oligonucleosomal arrays under constant stirring at 1,000 r.p.m. (injection #1–10: 0.5 μl each; injection #11–32: 1 μl each; injection #33–37: 2 μl each). Heats of dilution, obtained by the titration of hHP1β into buffer, were substracted from raw data before analysis. Raw data were integrated, normalized and the apparent heat change (Δq) of the reaction was plotted against the molecular ratio using the Origin software. For the determination of apparent enthalpy changes (ΔHapp), the molar association constant (KA), and the stoichiometry (n) of the interaction, non-linear least-square fitting of the Δq values was performed by the Origin software using a binding model of one set of identical binding sites.
(§1) Supplementary Table 1: Summary of conditions used in the different experiments of this study. experiment result modification template Temp. [NaCl] [MgCl2] […]
(§2) chromatin Fig. 1e,f; Fig. S1f-h; H3K9me3 oligo- 4 150 5 coprecipitation Fig. S2b nucleosomes
(§3) Fig. S7d,f; Fig.S9c nucleosomes […]
(§4) chromatin sedimentation Fig. 4a; H3K9me3 oligo- 4 150 0
(§5) (single point) Fig. S3b nucleosomes […]
(§6) chromatin sedimentation. oligo-(titration) Fig. 3a H3K9me3 nucleosomes 4 150 0

[1] = molecular target: asymmetrically modified H3K9me3-mononucleosomes; experiment: SPR, immobilized asymmetric H3K9me3 mononucleosome; parameters: species or system Xenopus laevis; details: SPR titration 0.024 to 50 µM, asymmetrically modified mononucleosome at 950 RU, one site-specific binding model; read-out: apparent Kd (Supplementary Fig. 8k)
[2] = molecular target: fluorescein-labeled H3K9me3-peptide; experiment: Fluorescence polarization (FP), H3K9me3 peptide; type: binding; details: 150 mM NaCl, 10 mM triethanolamine pH 7.4, 0.1 mM EDTA, 2 mM DTT, 4°C, read-out: apparent Kd
Experimental: Experiments were performed in 10 mM triethanolamine HCl (pH 7.4), 150 mM NaCl, 0.1 mM EDTA, 2 mM DTT. Titration series of 10 μl volume in 384-well plates were read multiple times on a Plate CHAMELEON II plate reader (HIDEX Oy, Turku, Finland). Multiple readings and independent titration series were averaged after data normalization. […]
hHP1β) using mass spectrometry. For detailed listing of the identified crosslinks see Supplementary […]
(c) Binding of the indicated hHP1β wild type (WT) and mutant proteins to a fluorescein-labeled H3K9me3-peptide was analyzed by FP at 150 mM NaCl. Apparent Kd deduced from the fitted curves are […]
(d) Chromatin coprecipitation of hHP1β WT and mutant proteins with oligonucleosomes. Precipitated material was run on SDS-PAGE and stained with Coomassie Blue. Input, 10 %.
(e) Oligonucleosomes at 2.5 nM were incubated with hHP1β wild type (WT) or mutant proteins at 5 µM and 150 mM NaCl (saturating conditions). DNA remaining in the supernatant after centrifugation was incubated with EtBr and measured by fluorescence reading. Data were n ormalized to DNA levels present in the input. […]
(g) Oligonucleosomes at 6.7 nM were incubated with hHP1β wild type (WT) or mutant proteins at 5 µM and 100 mM NaCl (non-saturating conditions). DNA remaining in the supernatant after centrifugation was incubated with EtBr and measured by fluorescence reading. […]

[3] = system: H3K9me3 oligonucleosomes in the absence of the H4 N-terminal tail; experiment: Chromatin coprecipitation, H3K9me3 oligonucleosomes with tailless H4; type: binding, Xenopus laevis; details: 150 mM NaCl, western blot
Experimental: […] Precipitated chromatin complexes were recovered by centrifugation at 16,100g for 30 min at 4°C. Pellets were washed once with 0.5 ml binding buffer and centrifuged for 15 min at 4 °C. Precipitated material was resuspended in 10 μl 1 × SDS loading buffer and boiled for 5 min before running on SDS–PAGE.
Supplementary Table 1: Summary of conditions used in the different experiments of this study.
experiment result modification template Temp. [NaCl] [MgCl2]
chromatin Fig. 1e,f; Fig. S1f-h; H3K9me3 oligo- 4 150 5

DNA fragment of 150 bp = experiment: Electrophoretic mobility shift assay (EMSA); type: binding; details: 150 bp DNA, 0, 3, 9 μM protein, 100 mM NaCl, 5 mM MgCl2, RT
Experimental: 50 ng 150 bp DNA amplified from the backbone of pUC18 was incubated with 0, 3, 9 μM recombinant protein in 10 μl EMSA buffer (10 mM Tris-HCl (pH 8.0), 100 mM NaCl, 5 mM MgCl2) for 20 min at room temperature (RT). 2 μl 50% (v/v) glycerol was added and samples were loaded onto 6% native PAGE gels. After electrophoresis, DNA was visualized by staining with 1 × SYBR Gold/0.25 × TBE for 20 min at RT. Images were captured using a ChemiDoc MP Imaging System (Bio-Rad, München, Germany). […]
crosslinking Fig. S6e,f nucleosomes […]
crosslinking Fig. S7a,b nucleosomes
EMSA Fig. 1g; Fig. 5c; n//a RT 100 5
1Preincubation of oligonucleosomes and h HP1β was performed at 4 °C . Measurements wer e carried out at the in dicated te mperature.
2in increments o f 0 .5 mM
3MgCl2 was added at the end of incubation to coprecipitate oligonucleosomes a nd bound hHP1β.

H3K9me3 peptide = molecular target: T1, H3K9me3 peptide (Homo sapiens, UniProt P68431); experiment: Pull-down, immobilized H3K9me3 peptide; type: binding; details: H3-tail peptides densely immobilized on magnetic beads, 100 pmol protein, 150 mM NaCl, 4°C
T1 construct: C-terminally biotinylated histone H3 peptides (aa 1–20)
Experimental: 4 μg C-terminally biotinylated histone H3 peptides (aa 1–20) or 1 μg of biotinylated nucleosomes or oligonucleosomal arrays were incubated with 40 μl Streptavidin MagnaSphere Paramagmetic beads (Promega, Mannheim, Germany) in 350 μl binding buffer (10 mM triethanolamine (pH 7.5), 150 mM NaCl, 0.1 mM EDTA, 0.1% (v/v) Triton-X100) supplemented with 1 mg ml^−1 BSA for 2.5 h at RT. Unbound material was removed by three washes with 0.5 ml binding buffer. Charged beads were then incubated with 100 pmol recombinant protein in 350 μl binding buffer for 1 h at 4°C on a rotator. Beads were washed three times with 0.5 ml binding buffer for 3 min per wash at 4°C. Bound proteins were eluted in 20 μl 1 × SDS loading buffer and by boiling for 5 min.
as §1, §2, §3, §4, §5, §6

Substance	Kd (H3KC9me3 peptide; 20 mM NaCl) [µM]	Kd (H3KC9me3 peptide; 150 mM NaCl) [µM]	reduced binding to H3-tail peptide containing H3KC9me compared with methylated lysine (H3KC9me3 peptide; Table 1, ref [17])	Kd [1] [µM]	Kd [2] [µM]	recovery at 3.5 mM and 7.0 mM MgCl2 with tailless H4 chromatin [3]	DNA binding (DNA fragment of 150 bp)	recovery on H3K9me3 peptide (H3K9me3 peptide)
hHP1β WT: recombinant human heterochromatin protein 1β (GenBank NM_001127228), 185 aa	11 ± 4	21 ± 3	sixfold reduced binding	7.5	5 ± 2	reduced recovery of hHP1β with H3K9me3 oligonucleosomes in the absence of the H4 N-terminal tail at 3.5 mM MgCl2; also recorded: recovery at 7.0 mM MgCl2 was comparable to the level obtained with H3K9me3 oligonucleosomes containing WT core histones	hHP1α but not hHP1β showed a high level of general DNA binding	
hHP1β I161A: CSD point mutant of hHP1β incapable of dimerization								significantly reduced recovery
